Assay results as given in PubChem BioAssay (NCI).
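96-well plates; 48 h exposure; 5 concentrations. Endpoints by linear interpolation between flanking doses. Not reached: highest tested concentration assigned. Abbreviation: GI50, concentration required for 50% inhibition of growth. TGI: total growth inhibition.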

What was measured:
Experiment in all cases: NCI tumour cell line growth inhibition, 48 h
HCT-15 colon = tested on: HCT-15 colon
SN12C renal = tested on: SN12C renal
SR leukemia = tested on: SR leukemia
RPMI-8226 leukemia = tested on: RPMI-8226 leukemia
SNB-19 CNS = tested on: SNB-19 CNS
LOX IMVI melanoma = tested on: LOX IMVI melanoma
MCF7 breast = tested on: MCF7 breast
NCI-H460 lung = tested on: NCI-H460 lung
CAKI-1 renal = tested on: CAKI-1 renal
OVCAR-8 ovarian = tested on: OVCAR-8 ovarian
NCI-H23 lung = tested on: NCI-H23 lung
TK-10 renal = tested on: TK-10 renal
SF-268 CNS = tested on: SF-268 CNS
MOLT-4 leukemia = tested on: MOLT-4 leukemia
PC-3 prostate = tested on: PC-3 prostate
SK-MEL-5 melanoma = tested on: SK-MEL-5 melanoma
DU-145 prostate = tested on: DU-145 prostate
T-47D breast = tested on: T-47D breast
K-562 leukemia = tested on: K-562 leukemia
SK-OV-3 ovarian = tested on: SK-OV-3 ovarian
HOP-92 NSCLC = tested on: HOP-92 NSCLC
BT-549 breast = tested on: BT-549 breast
SW-620 colon = tested on: SW-620 colon
OVCAR-4 ovarian = tested on: OVCAR-4 ovarian
NCI-H522 lung = tested on: NCI-H522 lung
OVCAR-3 ovarian = tested on: OVCAR-3 ovarian
SK-MEL-28 melanoma = tested on: SK-MEL-28 melanoma
RXF 393 renal = tested on: RXF 393 renal
U251 CNS = tested on: U251 CNS
COLO 205 colon = tested on: COLO 205 colon
M14 melanoma = tested on: M14 melanoma
SF-539 CNS = tested on: SF-539 CNS
HCC-2998 colon = tested on: HCC-2998 colon
SF-295 CNS = tested on: SF-295 CNS
HCT-116 colon = tested on: HCT-116 colon
NCI-H226 lung = tested on: NCI-H226 lung
HS 578T breast = tested on: HS 578T breast
A498 renal = tested on: A498 renal
MDA-MB-435 = tested on: MDA-MB-435
A549 NSCLC = tested on: A549 NSCLC
786-0 renal = tested on: 786-0 renal
HL-60(TB) leukemia = tested on: HL-60(TB) leukemia
HOP-62 NSCLC = tested on: HOP-62 NSCLC
UO-31 renal = tested on: UO-31 renal
OVCAR-5 ovarian = tested on: OVCAR-5 ovarian
IGROV1 ovarian = tested on: IGROV1 ovarian
UACC-257 melanoma = tested on: UACC-257 melanoma
UACC-62 melanoma = tested on: UACC-62 melanoma
KM12 colon = tested on: KM12 colon
SK-MEL-2 melanoma = tested on: SK-MEL-2 melanoma
MALME-3M melanoma = tested on: MALME-3M melanoma
ACHN renal = tested on: ACHN renal
CCRF-CEM leukemia = tested on: CCRF-CEM leukemia
MDA-MB-231 breast = tested on: MDA-MB-231 breast
EKVX NSCLC = tested on: EKVX NSCLC
HT29 colon = tested on: HT29 colon
NCI/ADR-RES ovarian = tested on: NCI/ADR-RES ovarian
SNB-75 CNS = tested on: SNB-75 CNS

## COc1cc(-n2cncc2-c2ccc3ccccc3c2)cc(OC)c1OC
HCT-15 colon
  GI50: < 0.0169 µM
  TGI: > 53.2 µM
SN12C renal
  GI50: 1.05 µM
  TGI: > 100 µM
SR leukemia
  GI50: < 0.01 µM
  TGI: 10.4 µM
RPMI-8226 leukemia
  GI50: 0.0543 µM
  TGI: > 100 µM
SNB-19 CNS
  GI50: 0.0234 µM
  TGI: > 100 µM
LOX IMVI melanoma
  GI50: 0.0872 µM
  TGI: > 41.8 µM
MCF7 breast
  GI50: < 0.01 µM
  TGI: > 100 µM
NCI-H460 lung
  GI50: < 0.0179 µM
  TGI: > 100 µM
CAKI-1 renal
  GI50: 0.037 µM
  TGI: > 100 µM
OVCAR-8 ovarian
  GI50: 0.0546 µM
  TGI: > 100 µM
NCI-H23 lung
  GI50: 0.0255 µM
  TGI: 5.91 µM
TK-10 renal
  GI50: 33.8 µM
  TGI: > 100 µM
SF-268 CNS
  GI50: 0.026 µM
  TGI: > 59 µM
MOLT-4 leukemia
  GI50: 0.0538 µM
  TGI: > 66.9 µM
PC-3 prostate
  GI50: 0.0158 µM
  TGI: > 100 µM
SK-MEL-5 melanoma
  GI50: < 0.01 µM
DU-145 prostate
  GI50: 0.0324 µM
  TGI: > 100 µM
T-47D breast
  GI50: > 100 µM
  TGI: > 100 µM
K-562 leukemia
  GI50: < 0.01 µM
  TGI: > 83.4 µM
SK-OV-3 ovarian
  GI50: 0.0518 µM
  TGI: > 69.4 µM
HOP-92 NSCLC
  GI50: 0.957 µM
  TGI: > 100 µM
BT-549 breast
  GI50: 0.0621 µM
  TGI: > 100 µM
SW-620 colon
  GI50: < 0.0159 µM
  TGI: > 100 µM
OVCAR-4 ovarian
  TGI: > 100 µM
NCI-H522 lung
  GI50: < 0.01 µM
OVCAR-3 ovarian
  GI50: < 0.0179 µM
  TGI: > 100 µM
SK-MEL-28 melanoma
  TGI: > 100 µM
RXF 393 renal
  GI50: 0.0199 µM
  TGI: 28.9 µM
U251 CNS
  GI50: 0.023 µM
  TGI: 16.7 µM
COLO 205 colon
  GI50: < 0.01 µM
  TGI: 0.391 µM
M14 melanoma
  GI50: 0.0171 µM
  TGI: 5.62 µM
SF-539 CNS
  GI50: 0.0184 µM
  TGI: 73.4 µM
HCC-2998 colon
  GI50: < 0.0116 µM
  TGI: 0.0297 µM
SF-295 CNS
  GI50: < 0.01 µM
  TGI: > 100 µM
HCT-116 colon
  GI50: < 0.0181 µM
  TGI: > 34.6 µM
NCI-H226 lung
  GI50: 2.03 µM
  TGI: > 62 µM
HS 578T breast
  GI50: < 0.0127 µM
  TGI: > 100 µM
A498 renal
  GI50: < 0.01 µM
  TGI: 1.41 µM
MDA-MB-435
  GI50: < 0.01 µM
  TGI: > 100 µM
A549 NSCLC
  GI50: 0.0269 µM
  TGI: > 100 µM
786-0 renal
  GI50: 0.0496 µM
  TGI: 18.5 µM
HL-60(TB) leukemia
  GI50: < 0.01 µM
  TGI: 1.54 µM
HOP-62 NSCLC
  GI50: 0.0391 µM
  TGI: 25.1 µM
UO-31 renal
  GI50: 0.401 µM
  TGI: > 100 µM
OVCAR-5 ovarian
  GI50: 0.0484 µM
  TGI: 53.4 µM
IGROV1 ovarian
  GI50: 0.0872 µM
  TGI: > 38 µM
UACC-257 melanoma
  GI50: > 87 µM
  TGI: > 100 µM
UACC-62 melanoma
  TGI: > 54.5 µM
KM12 colon
  GI50: < 0.01 µM
  TGI: > 100 µM
SK-MEL-2 melanoma
  GI50: 0.0309 µM
  TGI: 51.8 µM
MALME-3M melanoma
  GI50: > 100 µM
  TGI: > 100 µM
ACHN renal
  TGI: > 57.2 µM
CCRF-CEM leukemia
  GI50: 0.0344 µM
  TGI: > 100 µM
MDA-MB-231 breast
  GI50: 0.0595 µM
  TGI: > 57.6 µM
EKVX NSCLC
  GI50: 0.0657 µM
  TGI: > 100 µM
HT29 colon
  GI50: < 0.0144 µM
  TGI: > 70.6 µM

## N#CC(C#N)=C/C=C(\Sc1ccc(F)c(Cl)c1)c1ccc(Cl)cc1
HCT-15 colon
  GI50: 0.601 µM
  TGI: 2.01 µM
SN12C renal
  GI50: 0.669 µM
  TGI: 1.93 µM
RPMI-8226 leukemia
  GI50: 0.271 µM
  TGI: 0.967 µM
SNB-19 CNS
  GI50: 5.48 µM
  TGI: 28.2 µM
LOX IMVI melanoma
  GI50: 0.302 µM
  TGI: 1.12 µM
MCF7 breast
  GI50: 1.25 µM
  TGI: 26.7 µM
NCI-H460 lung
  GI50: 5.24 µM
  TGI: 22.7 µM
CAKI-1 renal
  GI50: 1.77 µM
  TGI: 12.1 µM
OVCAR-8 ovarian
  GI50: 0.862 µM
  TGI: 2.42 µM
NCI-H23 lung
  GI50: 1.14 µM
  TGI: 5.64 µM
TK-10 renal
  GI50: 1.62 µM
  TGI: 6.57 µM
SF-268 CNS
  GI50: 2.52 µM
  TGI: 17.8 µM
MOLT-4 leukemia
  GI50: 0.335 µM
  TGI: 2.74 µM
PC-3 prostate
  GI50: 0.787 µM
  TGI: 7.1 µM
SK-MEL-5 melanoma
  GI50: 7.22 µM
  TGI: 19.4 µM
DU-145 prostate
  GI50: 1.12 µM
  TGI: 6.77 µM
T-47D breast
  GI50: 11.6 µM
  TGI: 46.3 µM
K-562 leukemia
  GI50: 0.396 µM
  TGI: 12.6 µM
SK-OV-3 ovarian
  GI50: 15.8 µM
  TGI: > 41.1 µM
HOP-92 NSCLC
  GI50: 0.947 µM
  TGI: 6.91 µM
BT-549 breast
  GI50: 3.09 µM
  TGI: 8.84 µM
SW-620 colon
  GI50: 0.494 µM
  TGI: 5.74 µM
OVCAR-4 ovarian
  GI50: 0.918 µM
  TGI: 7.43 µM
NCI-H522 lung
  GI50: 1.8 µM
  TGI: 7.71 µM
OVCAR-3 ovarian
  GI50: 3.99 µM
  TGI: 16.3 µM
SK-MEL-28 melanoma
  TGI: 3.53 µM
RXF 393 renal
  GI50: 0.663 µM
  TGI: 2.12 µM
NCI/ADR-RES ovarian
  GI50: 1.11 µM
  TGI: 4.82 µM
U251 CNS
  GI50: 0.72 µM
  TGI: 2.61 µM
COLO 205 colon
  GI50: 2.58 µM
  TGI: > 21.3 µM
M14 melanoma
  GI50: 0.807 µM
  TGI: 2.53 µM
SF-539 CNS
  GI50: 2.19 µM
  TGI: 6.58 µM
HCC-2998 colon
  GI50: 5.71 µM
  TGI: 17.8 µM
SF-295 CNS
  GI50: 10.7 µM
  TGI: > 53.2 µM
HCT-116 colon
  GI50: 0.3 µM
  TGI: 0.799 µM
NCI-H226 lung
  GI50: 2.05 µM
  TGI: 6.25 µM
HS 578T breast
  GI50: 4.78 µM
  TGI: 43.5 µM
A498 renal
  GI50: 16 µM
  TGI: 32.4 µM
MDA-MB-435
  GI50: 1.25 µM
  TGI: 4.29 µM
A549 NSCLC
  GI50: 3.29 µM
  TGI: 12.7 µM
786-0 renal
  GI50: 0.95 µM
  TGI: 2.49 µM
HL-60(TB) leukemia
  GI50: 0.317 µM
  TGI: 4.48 µM
HOP-62 NSCLC
  GI50: 1.52 µM
  TGI: 5.78 µM
UO-31 renal
  GI50: 0.889 µM
  TGI: 2.86 µM
OVCAR-5 ovarian
  GI50: 2.93 µM
  TGI: 24.6 µM
IGROV1 ovarian
  GI50: 1.09 µM
  TGI: 4.29 µM
UACC-257 melanoma
  GI50: 6.68 µM
  TGI: 19.5 µM
UACC-62 melanoma
  GI50: 2.43 µM
  TGI: 11.5 µM
SNB-75 CNS
  GI50: 5.62 µM
  TGI: 16 µM
KM12 colon
  GI50: 2.74 µM
  TGI: 13.1 µM
SK-MEL-2 melanoma
  GI50: 7.01 µM
  TGI: 23.9 µM
MALME-3M melanoma
  GI50: 3.26 µM
  TGI: 20.4 µM
ACHN renal
  GI50: 0.795 µM
  TGI: 3.34 µM
CCRF-CEM leukemia
  GI50: 0.193 µM
  TGI: 0.539 µM
MDA-MB-231 breast
  GI50: 0.671 µM
  TGI: 2.02 µM
EKVX NSCLC
  GI50: 14.5 µM
  TGI: 39.5 µM
HT29 colon
  GI50: 0.545 µM
  TGI: 2.24 µM
